# Assay results taken from patent US10617662B2, “Autophagy activation-induced compound for improving skin inflammation for aging” (INCOSPHARM CORPORATION, priority 2017, dated 2020).
# Legend:
# Beclin-1 = assay: Western blot for Beclin-1 protein; format: cell-based, human; settings: HaCaT cells; 20 uM dilution, 1 ml added to 1 ml medium; FIG. 1
# Procedure: In order to analyze which gene expression is related to increased autophagy activation by Compound 8 of the present invention, a western blot analysis for Beclin-1 and ULK-1 (Serine/threonine-protein kinase-1) proteins which are closely related to autophagy activation was performed.
# As a specific experimental method, HaCaT cells, human-derived keratinocytes were seeded on a 60Ø dish at a density of 3×10^5 cells, and cultured in DMEM (Dulbecco's Modified Eagle Media, Gibco BRL) in an incubator under 37° C. and 5% CO2 for 24 hours. Compound 8 of the present invention was dissolved in DMSO at a concentration of 10 mM each to be a concentrate, and diluted with a medium to be at a concentration of 20 uM. Then in a state where 1 ml of medium was first in each well, 1 ml of each diluted solution was added thereto for treatment, and cultured for a certain period, and after completing the culturing, the medium was removed, and then cells were disrupted with a SDS sample buffer, and each protein was separated by SDS-PAGE gel electrophoresis, and transferred to a PVDF membrane. […]
# IL-24 (interleukin-24) = assay: Cytokine gene expression, IL-24, TNFα/IFN-γ induced inflammatory condition; format: cell-based, human; settings: FIG. 8
# KRT1 (Keratin 1) = assay: Western blot of differentiation marker KRT1; format: cell-based, human; settings: FIG. 4
# Procedure: (§1) A psoriasis-related genes were selected from the cDNA array result in which Compound 8 of the present invention was treated in HaCaT cells. In order to analyze whether Compound 8 has an effect on psoriasis alleviation, RT-PCR analysis for IL-36′ (interleukin 36 gamma), KLK7 (Kallikrein-related peptidase 7), OASL (2′-5′-Oligoadenylate Synthetase Like) and ALOX12B (Arachidonate 12-lipoxygenase, 12R type) which are very closely related to psoriasis was carried out. Further, KRT16 (Keratin 16), KRT6 (Keratin 6) and KRT1 (Keratin 1), known as psoriasis-related proliferation, differentiation markers were confirmed by a western blot analysis. As the specific experimental method, HEKa cells (Human Epidermal keratinocytes, adult), human-derived epidermal keratinocytes were seeded on a 24 well plate at a density of 1×10^5 cells, and cultured in an EpiLife medium (1× Human keratinocyte Growth supplement, 1× antibiotics) in an incubator under 37° C. and 5% CO2 for 24 hours. […]
# [1] = tested on: IL-1β (interleukin-1beta); assay: ELISA for IL-1β in LPS-treated HEKa cells; format: cell-based, human; settings: LPS-induced inflammatory condition, 10·M, FIG. 10
# Procedure: ELISA (enzyme-linked immunosorbent assay) for IL-1β (interleukin-1beta) which is very closely related to atopic inflammation and psoriasis was performed.
# As a specific experimental method, HEKa cells (Human Epidermal keratinocytes, adult), human-derived epidermal keratinocytes were seeded on a 24 well plate at a density of 1×10^5 cells, and cultured in an EpiLife medium (1× Human keratinocyte Growth supplement, 1× antibiotics) in an incubator under 37° C. and 5% CO2 for 24 hours.
# After culturing, while an inflammatory condition was induced by treatment with LPS (lipopolysaccharides) in each well, further treatment was performed with Compound 8 of the present invention and the compound of the following Comparative Example at a concentration of 10·M, and then the cells were incubated for a certain period. After completing culturing, media were collected, and then ELISA for IL-1β was carried out, and the results are shown in FIG. 10.
# [2] = tested on: IL-36γ (interleukin 36, gamma); assay: Cytokine gene expression, IL-36γ, IL-17A/TNF-α condition; format: cell-based, human; settings: FIG. 9
# [3] = tested on: psoriasis animal model induced by imiquimod 5% cream; assay: Psoriasis animal model, H&E staining of back tissue; format: in vivo, BALB/c mice; settings: FIG. 15
# Procedure: (§2) In order to confirm the psoriasis treatment effect by Compound 8 of the present invention, dorsal hair of 8-week-old BALB/c mice (female) was removed using hair removal cream (Veet®, Oxy Reckitt Benckiser, Cedex, France), and subsequently imiquimod 5% cream (Aldara®; 3M Pharmaceuticals, UK; 62.5 mg) was applied on the back and both ears of the mice twice in the morning and in the afternoon (Sensitization; Day 0). Then, after a barrier recovery period of 2 days, imiquimod 5% cream (62.5 mg/day) was applied repeatedly for 7 days (Induction stage; Day 2 -Day 8), thereby inducing the psoriasis animal model.
# (§3) After inducing the psoriasis animal model, Compound 8 of the present invention dissolved in ethanol (0.5%) and cream containing Compound 8 of the present invention (The same composition as that of the cosmetic composition of Example 14 except that it contained 0.5% by weight of Compound 8) were applied on the back once in the morning for 5 days (Treatment Stage; Day 8-Day 12). An untreated control group and a disease control group (vehicle) were treated with cream not containing Compound 8 of the present invention (cosmetic composition of Comparative Example 2) and ethanol, and during the treatment period, imiquimod 5% cream was applied thereon every other day, thereby maintaining psoriasis. […]
# KRT16 (Keratin 16) = assay: Western blot of proliferative marker KRT16; format: cell-based, human; settings: FIG. 4
# Procedure: as §1
# [4] = tested on: psoriasis animal model induced by imiquimod 5% cream; assay: Psoriasis animal model, transepidermal water loss (TEWL); format: in vivo, BALB/c mice; settings: increased by 5% imiquimod; applied for 5 days, 0.5% in ethanol or 0.5% cream; FIG. 17
# Procedure: as §2, §3
compound,measurement,setting,value
CCCCCCCCCCCCCCCC(=O)NCCCC[C@H](NC(=O)[C@H](CCCCN(CC(=O)O)CC(=O)O)N(CC(=O)O)CC(=O)O)C(=O)O [Compound 8],expression of Beclin-1 protein,Beclin-1,significantly increased
same,expression level of IL-24,IL-24 (interleukin-24),reduced
same,KRT1 (differentiation marker) level,KRT1 (Keratin 1),increased
same,cytokine IL-1β secretion level,[1],significantly reduced
same,expression level of IL-36γ,[2],reduced
same,thickness of stratum corneum,[3],significantly reduced
same,KRT16 (proliferative marker) level,KRT16 (Keratin 16),reduced
same,TEWL value,[4],remarkably reduced
